Assays:
[1] = tested on: DLBCL cells; conditions: cited from earlier work
[2] = tested on: MM.1S nude mice xenografts; test: Growth of MM.1S nude mice xenografts in vivo; parameters: species or system Balb/C nude mice; conditions: 50 mg/kg qd/14 po
Description: Balb/C nude mice (6 weeks, female, Beijing Huafukang Biotechnology Co., Ltd.) were purchased, and the animals were conditioned for about one week before the test. MM.1S cells were cultured in vitro, and the cells in logarithmic growth phase were resuspended in serum-free RPMI1640 medium to adjust the cell concentration. The cell suspension was subcutaneously injected into forefoot armpit of the Balb/C nude mice with a syringe, and each animal was injected with 150 μL (8.0×10^6/mouse). When the average tumor volume grew to about ˜150 mm^3, the animals were divided into 4 groups containing solvent control group, 50 mg/kg OTX-015 group, and 20 and 50 mg/kg compound 6 groups by the randomized block method and each group contained six animals. […] During the administration period, the tumor diameter was measured twice a week, the body weight of the animals was weighed, the living state of the animals was observed, and abnormal conditions were recorded.
The formula for calculating tumor volume (TV): TV=½×a×b^2, where a and b represent length and width, respectively.
The relative tumor volume (RTV) was calculated based on the measured results, and the calculation formula was: RTV=Vt/V0. Wherein V0 was the measured tumor volume at the time of administration by cage (ie, d0), and Vt was the tumor volume at each measurement.
The relative tumor proliferation rate T/C (%) was calculated based on the measured results, and the calculation formula was as follows: T/C (%)=(TRTV/CRTV)×100%, TRTV: treatment group RTV; CRTV: negative control group RTV.

[3] = target: CYP2D6 (Homo sapiens (Human), UniProt P10635); test: Direct inhibition test (DI test), CYP 2D6; type: in vitro ADME; conditions: human liver microsomes 0.2 mg/ml, read-out: Direct inhibition rate (%) 2D6
Sequence of CYP2D6 (P10635 whole entry): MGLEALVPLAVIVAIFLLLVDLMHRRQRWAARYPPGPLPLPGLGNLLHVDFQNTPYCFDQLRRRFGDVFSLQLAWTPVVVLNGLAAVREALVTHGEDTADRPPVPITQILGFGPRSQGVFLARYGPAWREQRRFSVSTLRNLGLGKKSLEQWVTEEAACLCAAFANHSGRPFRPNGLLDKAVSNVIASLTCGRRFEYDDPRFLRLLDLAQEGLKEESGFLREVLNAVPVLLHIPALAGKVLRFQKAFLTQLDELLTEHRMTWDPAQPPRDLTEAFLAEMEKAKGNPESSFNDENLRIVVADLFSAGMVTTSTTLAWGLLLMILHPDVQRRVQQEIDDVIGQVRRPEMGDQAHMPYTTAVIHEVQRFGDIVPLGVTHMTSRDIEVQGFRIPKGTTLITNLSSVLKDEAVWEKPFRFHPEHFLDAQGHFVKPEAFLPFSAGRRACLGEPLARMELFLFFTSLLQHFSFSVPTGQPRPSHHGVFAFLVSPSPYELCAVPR
Description: (§1) The system which was 100 μl of human liver microsomes (final concentration: 0.2 mg/ml) was used for direct inhibition incubation. The system contained NADPH (final concentration: 1 mM), 10 μl compound, positive inhibitor cocktail (ketoconazole, 10 μl, quinidine 10 μl, sulfaphenazole 100 μl, naphthoflavone 10 μl, tranylcypromine 1000 μl), negative control 10 μl DMSO and mixed probe substrate (midazolam 10 μl, testosterone 100 μl, dextromethorphan 10 μl, diclofenac 20 μl, phenacetin 100 μl, mephenytoin 100 μl). The reaction was stopped after the system was incubated for 20 min. The relative activity of the enzyme was calculated by measuring the relative amount of production of the metabolite.

[4] = target: BRD4 (I) (Homo sapiens (Human), UniProt O60885); test: Fluorescence anisotropy (FA) binding test on BRD4 (I); conditions: BRD4 (I) 10 nM, fluorescent (+)-JQ1 substrate 5 nM, read-out: BRD4 (1) IC50
Description: The binding activity of the compound to BRD4 (I) was tested using a fluorescence anisotropy (FA) method. The principle of FA test is to calculate and analyze the fluorescence polarization values in the horizontal and vertical directions by detecting the change of molecular weight before and after the interaction of fluorescein-labeled small molecules with other molecules. If the equilibrium of the binding between the fluorescently labeled small molecule and macromolecule is established, it will move slowly when excited, and the measured fluorescence polarization value will increase. If the binding between the fluorescently labeled small molecule and the macromolecule is replaced by another ligand, its rotation or flipping speed in the free state will be faster, and the emitted light will be depolarized relative to the plane of the excitation light, and the measured polarized light value will decrease to calculate the fluorescence anisotropy of the sample.
Expression and purification of the BRD4(I) recognition domain: colonies of newly transformed plasmid DNA from E. coli BL21(DE3)-condon plus-RIL cells were cultivated in 50 mL of Terrific Broth medium containing 50 μg/mL kanamycin and 34 μg/mL chloramphenicol at 37° C. overnight (starting culture). The starting culture was then diluted 100-fold in 1 L of fresh TB medium and the cells were grown at 37° C. to an optical density of about 0.8 at OD600 and then the temperature was lowered to 16° C. When the system was equilibrated at 16° C., the optical density at OD600 was approximately 1.2, and protein expression was induced with 0.2 mmol of isopropyl-β-D-thiogalactopyranoside (IPTG) overnight at 16° C. Bacteria were harvested by centrifugation (4000×g, 20 minutes, 4° C.) and stored as a pellet at −80° C. The cells expressing His 6-tagged protein was resuspend in lysis buffer [50 mmol 4-hydroxyethylpiperazineethanesulfonic acid (HEPES), 25° C., pH 7.5, 500 mmol NaCl, 10 mmol imidazole, 5% glycerol and freshly added 0.5 mmol of tris(2-carboxyethyl)phosphine hydrochloride (TCEP) and 1 mmol of phenylmethanesulfonyl fluoride (PMSF)] and lysed at 4° C. using JN 3000PLUS high pressure homogenizer (JNBIO-Guangzhou, China). The lysate was clarified by centrifugation (12,000×g for 1 hour at 4° C.) and applied to a nickel-nitriloacetate agarose column. The column was washed once with 50 mL of wash buffer containing 30 mmol of imidazole. The protein was eluted using imidazole in an elution buffer in a stepwise elution (100-250 mmol imidazole in 50 mmol HEPES, 25° C., pH 7.5, 500 mmol NaCl, 5% glycerol). All fractions were collected and monitored by SDS-polyacrylamide gel electrophoresis (Bio-Rad Criterion TM Precast Gels, 4-12% Bis-Tris, 1.0 mm, from Bio-Rad, CA). After 1 mmol of dithiothreitol (DTT) was added, the eluted proteins were treated with tobacco […] virus (TEV) protease overnight at 4° C. to remove the His6 tag. The protein was concentrated and further purified by size exclusion chromatography on a Superdex 75 16/60 HiLoad gel filtration column. The samples were monitored by SDS-polyacrylamide gel electrophoresis and concentrated to 8-10 mg/mL with gel filtration buffer, 10 mmol Hepes pH 7.5, 500 mM NaCl, 1 mmol DTT, and used for protein binding assays and crystallization.
The fluorogenic substrate was (+)-JQ1 linked to a fluorescent molecule and the working concentration was 5 nM. BRD4 (I) protein had 10 nM of working concentration and the total reaction system was 40 μL. The buffer was 50 mM 4-hydroxyethylpiperazineethanesulfonic acid (HEPES) pH 7.4, 150 mM NaCl, 0.5 mM 3[(3-cholamidopropyl)dimethylammonio]propanesulfonate (CHAPS). […] The final concentration of DMSO was chosen to be 0.2%, taking into account the solubility of the compound and the effect of DMSO on the assay. All measurements were made under these conditions. […]

[5] = target: CYP2C19 (Homo sapiens (Human), UniProt P33261); test: Direct inhibition test (DI test), CYP 2C19; type: in vitro ADME; conditions: human liver microsomes 0.2 mg/ml, read-out: Direct inhibition rate (%) 2C19
Sequence of CYP2C19 (P33261 whole entry): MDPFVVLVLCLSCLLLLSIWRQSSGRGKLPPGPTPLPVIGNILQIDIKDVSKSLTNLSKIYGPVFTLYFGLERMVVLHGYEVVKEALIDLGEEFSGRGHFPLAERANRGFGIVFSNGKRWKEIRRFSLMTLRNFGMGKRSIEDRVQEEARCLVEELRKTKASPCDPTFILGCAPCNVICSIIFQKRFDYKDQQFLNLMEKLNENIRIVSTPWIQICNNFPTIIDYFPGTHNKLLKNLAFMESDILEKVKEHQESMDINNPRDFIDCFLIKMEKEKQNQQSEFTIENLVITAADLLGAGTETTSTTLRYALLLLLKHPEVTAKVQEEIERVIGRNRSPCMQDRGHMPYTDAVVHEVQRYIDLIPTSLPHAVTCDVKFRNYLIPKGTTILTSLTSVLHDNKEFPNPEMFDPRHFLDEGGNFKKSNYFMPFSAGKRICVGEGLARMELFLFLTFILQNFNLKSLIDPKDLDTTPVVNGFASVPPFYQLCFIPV
Description: as §1

[6] = target: CYP2C9 (Homo sapiens (Human), UniProt P11712); test: Direct inhibition test (DI test), CYP 2C9; type: in vitro ADME; conditions: human liver microsomes 0.2 mg/ml, read-out: Direct inhibition rate (%) 2C9
Sequence of CYP2C9 (P11712 whole entry): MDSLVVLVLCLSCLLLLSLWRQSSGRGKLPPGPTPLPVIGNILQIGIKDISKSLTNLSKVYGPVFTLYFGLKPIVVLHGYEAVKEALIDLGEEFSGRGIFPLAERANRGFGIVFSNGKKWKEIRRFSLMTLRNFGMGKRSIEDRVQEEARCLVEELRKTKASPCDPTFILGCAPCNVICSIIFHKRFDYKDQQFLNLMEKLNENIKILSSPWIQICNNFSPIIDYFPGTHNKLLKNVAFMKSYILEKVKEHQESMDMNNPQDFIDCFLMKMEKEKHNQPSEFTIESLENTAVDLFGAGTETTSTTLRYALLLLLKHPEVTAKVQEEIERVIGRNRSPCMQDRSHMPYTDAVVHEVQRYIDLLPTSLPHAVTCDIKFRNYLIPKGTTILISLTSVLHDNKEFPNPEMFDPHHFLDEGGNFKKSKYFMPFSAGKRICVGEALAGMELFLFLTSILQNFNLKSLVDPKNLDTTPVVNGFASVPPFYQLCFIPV
Description: as §1

[7] = target: CYP3A4 (Homo sapiens (Human), UniProt P08684); test: Direct inhibition test (DI test), CYP 3A4; type: in vitro ADME; conditions: human liver microsomes 0.2 mg/ml, first of two values a/b (two 3A4 probes midazolam, testosterone; assignment not given), read-out: Direct inhibition rate (%) 3A4, first value
Sequence of CYP3A4 (P08684 whole entry): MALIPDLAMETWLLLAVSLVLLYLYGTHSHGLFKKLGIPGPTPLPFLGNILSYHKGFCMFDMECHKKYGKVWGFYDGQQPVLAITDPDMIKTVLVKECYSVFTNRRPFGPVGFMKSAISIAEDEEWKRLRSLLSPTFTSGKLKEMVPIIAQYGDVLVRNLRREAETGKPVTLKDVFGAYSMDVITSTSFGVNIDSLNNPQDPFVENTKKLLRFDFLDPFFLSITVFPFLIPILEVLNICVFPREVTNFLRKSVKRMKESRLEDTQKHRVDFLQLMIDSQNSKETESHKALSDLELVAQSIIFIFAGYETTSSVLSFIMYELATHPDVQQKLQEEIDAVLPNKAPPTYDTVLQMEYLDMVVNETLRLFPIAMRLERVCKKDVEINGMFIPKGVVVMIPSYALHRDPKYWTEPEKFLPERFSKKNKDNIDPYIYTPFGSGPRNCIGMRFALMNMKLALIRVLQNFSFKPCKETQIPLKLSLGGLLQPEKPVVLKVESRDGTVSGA
Description: as §1

[8] = target: 3A4 (Homo sapiens (Human), UniProt P08684); test: Direct inhibition test (DI test), CYP 3A4; type: in vitro ADME; conditions: human liver microsomes 0.2 mg/ml, 20 min; for Direct inhibition rate (%) 3A4, second value: second of two values a/b (two 3A4 probes midazolam, testosterone; assignment not given); for Direct inhibition rate (%) 3A4, first value: first of two values a/b (two 3A4 probes midazolam, testosterone; assignment not given)
Sequence of 3A4 (P08684 whole entry): as above
Description: as §1

[9] = Metabolic stability in human liver microsomes; type: in vitro ADME; conditions: human liver microsomes 0.5 mg/ml, 1 μM compound, NADPH; for microsomal CLint at 1 μM: read-out: HLM Clint; for half-life at 1 μM: read-out: HLM t1/2
Description: The system which was 150 μl of human liver microsomes (final concentration: 0.5 mg/ml) was used for metabolic stability incubation. The system contained reduced coenzyme II (NADPH) (final concentration: 1 mM) and 1 μM compound, positive control or negative control. The reaction was terminated with acetonitrile containing (imiprozine, batch number: 3221; tinidazole, given) at 0 min, 5 min, 10 min, and 30 min, respectively. The mixture was vortexed for 10 min, centrifuged at 15000 rpm for 10 min, and 50 μl of the supernatant was injected into a 96-well plate. The metabolic stability of the compound was calculated by measuring the relative reduction in the original medicament.
(§2) HLM Clint (μl/min/mg) refers to the clearance rate of compounds in human liver microsomes having a unit of μl/min/mg; mLM Clint (μl/min/mg) refers to the clearance rate of compounds in mouse liver microsomes having a unit of μl/min/mg; HLM t1/2 (min) refers to the half-life of the compound in human liver microsomes having a unit of minutes; mLM t1/2 (min) refers to the half-life of the compound in mouse liver microsomes having a unit of minutes. TDI means that the mechanism inhibition test of compounds on CYP enzyme evaluates whether the compound has time-dependent inhibition of the enzyme.

[10] = Metabolic stability in mouse liver microsomes; type: in vitro ADME; conditions: for microsomal CLint at 1 μM: read-out: mLM Clint
[11] = tested on: CYP enzyme; test: Mechanistic inhibition test (TDI test); type: in vitro ADME; conditions: human liver microsomes 0.2 mg/ml; mechanism inhibition if kobs greater than 200
Description: The system which was 200 μl of human liver microsomes (final concentration: 0.2 mg/ml) was used for mechanistic inhibition incubation. The system contained 10 μl compound, mixed positive inhibitor (Troleandomycin 10 μl, Paroxetine 10 μl, Tienilic acid 10 μM, Furafylline 10 μl) or 10 μl negative control PRO. After NADPH (final concentration: 1 mM) or PBS was added, the system was incubated for 0 min, 5 min, 10 min and 30 min, then NADPH (final concentration: 1 mM) and mixed probe substrate (Midazolam 5 μM, Testosterone 50 μl, Dextromethophan 5 μM, Diclofenac 10 μl, Phenacetin 5 0 μM, S-(+)-mephenytoin 50 μl) were added and incubated for 10 min. Then the reaction was stopped. The test for positive inhibitor CYP2C19 was carried out alone, the inhibitor S-(+)-fluoxetine was 100 μM. The enzyme activity was calculated by measuring the relative production amount of metabolite. kobs was calculated.
as §2

[12] = tested on: human myeloma cells MM.1S; test: MM.1S cell viability, CCK-8 method; type: cell-based
Description: The MM.1S cell line was tested for cell viability. The test methods were as follows: human myeloma cells MM.1S were treated with compound for 72 h, and the proliferation inhibition effect and degree of the compound were detected by CCK-8 method.

[13] = target: 2D6 (Homo sapiens (Human), UniProt P10635); test: Direct inhibition test (DI test), CYP 2D6; type: in vitro ADME; conditions: human liver microsomes 0.2 mg/ml, 20 min
Sequence of 2D6 (P10635 whole entry): as the sequence (P10635 whole entry) above
Description: as §1

[14] = target: 2C9 (Homo sapiens (Human), UniProt P11712); test: Direct inhibition test (DI test), CYP 2C9; type: in vitro ADME; conditions: human liver microsomes 0.2 mg/ml, 20 min
Sequence of 2C9 (P11712 whole entry): as the sequence (P11712 whole entry) above
Description: as §1

Row | SMILES | inhibition at 20 min [3] [%] | IC50 [4] [µM] | inhibition at 20 min [5] [%] | inhibition at 20 min [6] [%] | inhibition at 20 min [7] [%] | Direct inhibition rate (%) 3A4, second value [8] [%] | microsomal CLint at 1 μM [9] [µL/min/mg] | half-life at 1 μM [9] [min] | half-life at 1 μM ([10]; read-out: MLM t1/2) [min] | microsomal CLint at 1 μM [10] [µL/min/mg] | TDI [11] | Direct inhibition rate (%) 3A4, first value [8] [%] | further results
1 | Cc1sc2c(c1C)C(c1ccc(Cl)cc1)=N[C@@H](CC(=O)Nc1ccc(O)cc1)c1nnc(C)n1-2 [OTX-015, reference compound] | – | – | – | – | – | – | – | – | – | – | – | – | IC50 [1]: 0.192 µM; RTV (mean SD) [2]: 603.15; T/C (%) [2]: 49.90%; TV (mm^3, mean) d0 ([2]; d0 (at start of administration)): 184.48 mm^3; TV (mm^3, mean) d14 ([2]; d14): 886.75 mm^3
2 | Cc1ccc(-n2nc(C(=O)N3CCN(C)CC3)cc2-c2ccc3c(c2)N(C2CCCC2)[C@H](C)C(=O)N3C)cc1 [Example 26] | 4 | 0.0051 | 34 | 39 | 35 | 37 | 66 | 21 | 27 | 52 | no | – | –
3 | Cc1ccc(-n2nc(C(=O)N3CCN(C)CC3)nc2-c2ccc3c(c2)N(C2CC2)C(C)C(=O)N3C)cc1 (stereo not drawn) [Example 33] | – | 0.0157 | – | – | – | 12 | – | – | – | – | no | 7 | IC50 ([12]; 72 h treatment, CCK-8): 0.0107 ± 0.00259 µM; inhibitory activity against the MM.1S cell line (in words) ([12]; compared with positive (+)-JQ1): better inhibitory activity against the MM.1S cell line than the positive (+)-JQ1; HLM Clint [9]: 22 µL/min/mg; HLM t1/2 [9]: 62 min; MLM t1/2 [10]: 107 min; mLM Clint [10]: 13 µL/min/mg
4 | Cc1ccc(-n2nc(C(=O)N3C[C@@H](C)N[C@@H](C)C3)cc2-c2ccc3c(c2)N(C2CCCC2)[C@H](C)C(=O)N3C)cc1 [Example 27] | 6 | 0.0049 | 19 | 27 | – | 47 | 55 | 25 | – | 6 | no | 24 | half-life at 1 μM ([10]; read-out: half-lives in mouse liver microsomes): 248 min
5 | C[C@@H]1C(=O)N(C)c2ccc(-c3nc(C(=O)N4CCCN(C)CC4)nn3-c3ccccc3)cc2N1C1CCCC1 [Example 8] | – | 0.0098 | 35 | – | 5 | 6 | 58 | 23.9 | 22.4 | 62 | no | – | Direct inhibition rate (%) 2D6 [13]: no; Direct inhibition rate (%) 2C9 [14]: no

— US11078188B2, “Dihydroquinoxaline bromodomain recognition protein inhibitor, preparation method and use thereof” (SHANGHAI INSTITUTE OF MATERIA MEDICA, CHINESE ACADEMY OF …, priority 2017, dated 2021)
